Reference: patent publication US20190290656A1, “PT(IV) PRODRUGS” (YISSUM RESEARCH DEVELOPMENT COMPANY OF THE HEBREW …, priority 2015, published 2019)
Entries after “also recorded” stand apart in the source; their conditions may differ. Where two headings read alike, the source gives them in different places.

Key:
HCT-15 cells = assay: MTT cytotoxicity assay, HCT-15; type: cell-based, human
Procedure: (§1) Cisplatin (CDDP) and oxaliplatin (OXP) were dissolved just before the experiment in a 0.9% NaCl solution. […]
(§2) Cancer Res. 1988, 48, 589-601]. […] Triplicate cultures were established for each treatment.
(§3) MTT assay. […] Triplicate cultures were established for each treatment.
(§4) The two dimers, 3a and 3b, as well as compounds 1a and 2a were screened against six human cancer cell lines representative of lung (H157), colon (HCT-15), cervical (A431), ovarian (2008) and pancreatic (PSN1) cancers, along with melanoma (A375). Cytotoxicity was evaluated by means of the MTT test after 72 h of treatment and the in vitro antitumor potential of newly synthesized derivatives was compared to that of the reference metallo-drugs CDDP and OXP.

A375 cells = assay: MTT cytotoxicity assay, A375; type: cell-based, human
Procedure: as §1, §2, §3, §4

A431 cells = assay: MTT cytotoxicity assay, A431; type: cell-based, human; conditions: A431, 72 h
Procedure: as §3, §4

PSN1 cells = assay: MTT cytotoxicity assay, PSN1; type: cell-based, human; conditions: PSN1, 72 h, MTT
Procedure: as §3, §4

A2780 cells = assay: MTT cytotoxicity assay, A2780; type: cell-based, human; conditions: A2780, 72 h exposure, MTT; read-out: IC50 (median growth inhibitory concentration)
Procedure: (§5) Platinum(IV) complexes were dissolved in DMSO to stock solutions of 1 mg/mL just before the experiment, and a calculated amount of drug solution was added to the cell growth medium to a final solvent concentration of 0.5%, which had no discernible effect on cell killing. Cisplatin (CDDP) and oxaliplatin (OXP) were dissolved just before the experiment in a 0.9% NaCl solution.
(§6) Human prostate adenocarcinoma (PC3) cells were obtained from European Collection of Cell Cultures (ECACC, Salisbury, UK). Human ovarian cancer cell lines A2780 and its cisplatin resistant variant, A2780cisR, were kindly provided by Prof.
as §2

A2780cisR cells = assay: MTT cytotoxicity assay, A2780cisR (cisplatin resistant); type: cell-based, human; conditions: for IC50: A2780cisR, 72 h exposure, MTT, read-out: IC50 (median growth inhibitory concentration)
Procedure: as §5, §6, §2

MCF-7 cells = assay: MTT cytotoxicity assay, MCF-7; type: cell-based, human; conditions: MCF-7, 72 h exposure, MTT; read-out: IC50 (median growth inhibitory concentration)
Procedure: (§7) Cisplatin (CDDP) and oxaliplatin (OXP) were dissolved just before the experiment in a 0.9% NaCl solution.
as §6
(§8) Triplicate cultures were established for each treatment.

A549 cells = assay: MTT cytotoxicity assay, A549; type: cell-based, human; conditions: A549, 72 h exposure, MTT; read-out: IC50 (median growth inhibitory concentration)
Procedure: as §7, §6, §8

PC3 cells = assay: MTT cytotoxicity assay, PC3; type: cell-based, human; conditions: PC3, 72 h exposure, read-out: IC50 (median growth inhibitory concentration)
Procedure: as §7, §6, §8

A498 cells = assay: MTT cytotoxicity assay, A498; type: cell-based, human; conditions: A498, 72 h exposure, read-out: IC50 (median growth inhibitory concentration)
Procedure: as §5, §6, §2

BxPC3 cells = assay: MTT cytotoxicity assay, BxPC3; type: cell-based, human; conditions: BxPC3, 72 h exposure, MTT; read-out: IC50 (median growth inhibitory concentration)
[1] = system: Histone deacetylase (HDAC); assay: Histone deacetylase assay (Fluor-de-Lys) in MCF-7 cells; type: cell-based, human; conditions: MCF-7, 24 h
Procedure: Histone deacetylase activity was determined using Fluor-de-Lys® HDAC fluorometric activity assay kit (Enzo Life Sciences International, Inc., Plymount Meeting, Pa., U.S.A.). […] Fluorescence was measured using a Fluoroskan Ascent FL (Labsystem, Finland) plate reader, with excitation at 360 nm and emission at 460 nm. For comparison purpose, the HDAC activity was also measured in nuclear extracts of MCF-7-treated cells by means of the same fluorometric activity assay kit. In this latter case, MCF-7 nuclear extracts were obtained as follow: cell pellets were re-suspended in lysis buffer [Tris.HCl (10 mM, pH 8.0), KCl (60 mM), EDTA (1.2 mM), DTT (1 mM), PMSF (0.05 mM), NP-40 (0.05%)] and kept on ice for 10 min. Subsequently, samples were centrifuged at 1000 g and re-suspended in the nuclear extraction buffer [Tris.HCl (20 mM, (pH 8.0), NaCl (420 mM), MgCl2 (0.7 mM), EDTA (0.25 mM), glycerol (25%)] for 30 min at 4° C., and then centrifuged at 15000 g for 15 min at 4° C.
The complexes described here were specifically designed to release either VPA of PhB inside the cells in the hope that they will inhibit HDAC activity paving the way for more efficient DNA platination. Thus, in addition to measuring the levels of DNA platination, we also measured the ability of these pro-drugs to inhibit HDAC activity in cells. […] For comparison purposes, the HDAC inhibitory effect determined by tested complexes was also assayed in isolated nuclei of MCF-7 treated cells (FIG. 3B).
The HDAC activity was determined by the Fluor de Lys® Fluorescent Cellular Activity Assay (Enzo Life Sciences).
Also, MCF-7 cells were incubated for 24 h with increasing concentrations of compounds I-VIII and their HDAC activity was determined. The IC50 values for the inhibition of HDAC activity in the cells are depicted in FIG. 3C.

2008 cells = assay: MTT cytotoxicity assay, 2008; type: cell-based, human; conditions: 2008, 72 h, MTT
Procedure: as §3, §4

H157 cells = assay: MTT cytotoxicity assay, H157; type: cell-based, human; conditions: H157, 72 h
Procedure: as §3, §4

HCT-15 spheroids = assay: 3D spheroid APH assay, HCT-15; type: cell-based, human; conditions: HCT-15 spheroids, 72 h, APH test
From the text: (§9) Acid phosphatase (APH) assay. A modified APH assay, which is based on quantification of cytosolic acid phosphatase activity, was used for determining cell viability in spheroids. […] Triplicate cultures were established for each treatment. […] Evaluation was based on means from at least four independent experiments.
(§10) In order to improve the predictive capacity of the in vitro assays, we tested the activity in three three-dimensional (3D) cell cultures; human colon cancer cells, HCT-15, and human pancreatic cancer cells, KRAS wild type BxPC3 cells KRAS mutated PSN-1 cells. The cancer spheroids were treated with 3a and 3b for 72 h and the cell viability was assessed by means of the APH assay (Table 6). For comparison purposes, the cytotoxicities of CDDP and OXP were evaluated under the same experimental conditions.

BxPC3 spheroids = assay: 3D spheroid APH assay, BxPC3; type: cell-based, human; conditions: 72 h, APH test
From the text: as §9, §10

PSN-1 spheroids = assay: 3D spheroid APH assay, PSN-1; type: cell-based, human; conditions: PSN-1 spheroids, 72 h, APH test
From the text: as §9, §10

nine cancer cell lines = assay: MTT cytotoxicity, over the nine cancer cell lines; conditions: for IC50: read-out: average IC50 values for the nine cancer cell lines, mean over nine cell lines, 72 h MTT
[2] = HCT-15, 72 h, MTT (Table 5), read-out: IC50 (μM) ± S.D.
[3] = A375, 72 h, MTT (Table 5), read-out: IC50 (μM) ± S.D.
[4] = HCT-15, 72 h exposure, MTT (Table 1), read-out: IC50 (median growth inhibitory concentration)
[5] = A375, 72 h exposure, MTT (Table 1), read-out: IC50 (median growth inhibitory concentration)

c,c,t-[Pt(NH3)2Cl2(DCA)(GABA)](TFA) [Compound 1a]
IC50 (HCT-15 cells; [2]): 12.5 ± 3.58 µM | IC50 (A375 cells; [3]): 2.81 ± 0.21 µM | IC50 (A431 cells): 4.98 ± 1.63 µM | IC50 (PSN1 cells): 4.74 ± 2.87 µM

O=C1[O][Pt]2([NH][C@@H]3CCCC[C@H]3[NH]2)[O]C1=O [OXP, oxaliplatin, reference compound]
IC50 (A2780 cells): 520 ± 270 nM | IC50 (A2780cisR cells): 4.2 ± 1.6 µM | IC50 (MCF-7 cells): 3.36 ± 0.2 µM | IC50 (A549 cells): 1.46 ± 0.31 µM | IC50 (HCT-15 cells; [2]): 1.15 ± 0.43 µM | IC50 (HCT-15 cells; [4]): 1.15 ± 0.43 µM | IC50 (PC3 cells): 5.24 ± 0.86 µM | IC50 (A498 cells): 7.94 ± 1.04 µM | IC50 (BxPC3 cells): 4.15 ± 0.93 µM | IC50 (A375 cells; [3]): 6.3 ± 2.01 µM | IC50 (A375 cells; [5]): 6.3 ± 1.11 µM | effect on HDAC activity (in words) ([1]; IC50 concentrations): not effective in modifying HDAC activity | IC50 (2008 cells): 1.53 ± 0.88 µM | IC50 (A431 cells): 3.06 ± 0.88 µM | IC50 (H157 cells): 5.99 ± 1.85 µM | IC50 (PSN1 cells): 8.25 ± 3.42 µM | IC50 (HCT-15 spheroids): 36.5 ± 3.12 µM | IC50 (BxPC3 spheroids): 75.2 ± 6.91 µM | IC50 (PSN-1 spheroids): 59.7 ± 8.52 µM | IC50 (nine cancer cell lines): 4.9 µM

CCCC(CCC)C(=O)O [VPA, valproic acid, reference compound]
IC50 ([1]; increasing concentrations, read-out: IC50 for cellular inhibition of HDAC activity): ~8 mM | cytotoxicity IC50 values (in words) (nine cancer cell lines; uncoordinated ligands): millimolar range; also recorded: mM range

CCCC(CCC)C(=O)[O][Pt]12([O]C(=O)C(CCC)CCC)([NH]C3CCCCC3[NH]1)[O]C(=O)C(=O)[O]2 (centres unmarked) [III, [Pt(DACH)(C8H15O2)2(ox)]]
IC50 (A2780 cells): 1300 ± 200 nM | IC50 (A2780cisR cells): 8.8 ± 2.1 µM | resistance factor (A2780cisR cells; ratio IC50 resistant (A2780cisR) / sensitive (A2780) cells): 6.8 | IC50 (MCF-7 cells): 5.7 ± 0.9 µM | IC50 (A549 cells): 20.5 ± 2.14 µM | IC50 (HCT-15 cells; [4]): 16.4 ± 1.63 µM | IC50 (PC3 cells): 10.1 ± 1.17 µM | IC50 (A498 cells): 5.21 ± 1.1 µM | IC50 (BxPC3 cells): 14.4 ± 2.16 µM | IC50 (A375 cells; [5]): 4.17 ± 0.87 µM

O=C(CCCc1ccccc1)[O][Pt]12([O]C(=O)CCCc3ccccc3)([NH]C3CCCCC3[NH]1)[O]C(=O)C(=O)[O]2 (centres unmarked) [VIII, [Pt(DACH)(C10H11O2)2(ox)]]
IC50 (A2780 cells): 900 ± 80 nM | IC50 (A2780cisR cells): 1.96 ± 0.44 µM | IC50 (MCF-7 cells): 2.28 ± 0.46 µM | IC50 (A549 cells): 19.6 ± 3.22 µM | IC50 (HCT-15 cells; [4]): 12.5 ± 1.13 µM | IC50 (PC3 cells): 6.35 ± 1.19 µM | IC50 (A498 cells): 9.32 ± 1.07 µM | IC50 (BxPC3 cells): 7.64 ± 1.15 µM | IC50 (A375 cells; [5]): 0.64 ± 0.13 µM | IC50 (nine cancer cell lines): 6.81 µM

c,c,t-[Pt(DACH)(56Phen)(PhBu)(Succ)]Cl2 [Compound 2a]
IC50 (HCT-15 cells; [2]): 6.25 ± 3.08 µM | IC50 (A375 cells; [3]): 1.57 ± 0.16 µM | IC50 (A431 cells): 4.15 ± 1.12 µM | IC50 (PSN1 cells): 3.23 ± 1.12 µM
